Assay results from patent publication US4141989A, “Fungicidal 3-(N-chloroacetyl-N-arylamino)-gamma-butyrolactone compositions” (Chevron Research Company, priority 1977, dated 1979).

How the values were obtained:
[1] = system: Peronospora parasitica ssp. brassicae; assay: Curative control of cabbage downy mildew (Example 14, Table IX); assay type: in vivo; conditions: for % Control: disease reduction relative to check flat
[2] = system: Phytophthora cryptogea; assay: Safflower crown and root rot control by foliar spray (Example 17, Table XII); assay type: in vivo
[3] = system: Plasmopara viticola; assay: Residual preventive grape downy mildew control, wettable powder (Example 11, Table VI); assay type: in vivo; conditions: 160 ppm, inoculated 3 days after treatment
Method: Three-month-old single-bud Cabernet Sauvignon cuttings (cultivated in gravel), containing 5 to 8 leaves, were used as hosts. […] Three days after fungicide treatment, the undersides of the leaves were sprayed with a sporangial suspension of Plasmopara viticola. The inoculated cuttings were put into a misting chamber. Eight to 10 days after the inoculation, the amount of disease control was determined. The percent disease control provided by the test compound was based on the percent disease reduction relative to untreated check cuttings.

[4] = system: Peronospora parasitica ssp. brassicae; assay: Preventive control of cabbage downy mildew (Example 14, Table IX); assay type: in vivo; conditions: for % Control: disease reduction relative to check flat
[5] = system: Plasmopara viticola; assay: Eradicant grape downy mildew control, detached Emperor leaves (Example 6, Table I); assay type: in vivo; conditions: 48 h, sprayed 2 days after inoculation, read-out: Eradicative Grape Downy Mildew Control, %
[6] = Dermal LD50 (rats); conditions: rat, in vivo, topical or ocular
[7] = Oral LD50 (rats); conditions: rat, in vivo
[8] = system: Phytophthora capsici; assay: Control of Phytophthora rot in sweet peppers (Example 20, Table XV); assay type: in vivo; conditions: 50% wettable powder
Method: The pots were then inoculated with the organism by spreading a bed of oats grain (contaminated with the Phytophthora capsici organism) on the soil surface and covering the bed with a 1-cm depth of sterilized soil. The sweet pepper seedlings were then sprayed to runoff with an aqueous suspension of the test compound at various test concentrations (12 pots per concentration level). The amount of disease control was determined by counting the number of dead plants. The percent disease control provided by the test compound was based on the percent disease reduction relative to untreated check seedlings.

[9] = system: Phytophthora cryptogea; assay: Snapdragon crown and root rot control, foliar spray (Example 16, Table XI); assay type: in vivo; conditions: foliar spray, 100 ppm
[10] = system: P. cryptogea; assay: Tobacco crown and root rot control by soil drench, P. cryptogea (Example 19, Table XIV); assay type: in vivo
[11] = system: Plasmopara viticola; assay: Preventive grape downy mildew control, detached Cabernet Sauvignon leaves (Example 7, Table II); assay type: in vivo
[12] = system: yeasts responsible for the alcoholic fermentation of grapes; assay: Fermentation test, grape juice (Example 8, Table III); assay type: cell-based
[13] = system: Pseudoperonospora cubensis; assay: Foliar spray control of cucumber downy mildew (Example 15, Table X); assay type: in vivo
[14] = system: P. parasitica; assay: Safflower crown and root rot control by soil drench, P. parasitica (Example 18, Table XIII); assay type: in vivo
[15] = system: Phytophthora cryptogea; assay: Safflower crown and root rot control by soil drench, P. cryptogea (Example 18, Table XIII); assay type: in vivo
[16] = system: Plasmopara viticola; assay: Preventive grape downy mildew control, detached Emperor leaves (Example 5, Table I); assay type: in vivo; conditions: 6.4 ppm, sprayed before inoculation
[17] = system: Phytophthora parasitica; assay: Tobacco crown and root rot control by soil drench, P. parasitica (Example 19, Table XIV); assay type: in vivo
[18] = system: Plasmopara viticola; assay: Eradicant downy mildew control on grape cuttings, wettable powder (Example 10, Table V); assay type: in vivo
Method: Three-month-old single-bud Cabernet Sauvignon cuttings (cultivated in gravel) containing 6 to 10 leaves were used as hosts. The undersides of the leaves were sprayed with a sporangial suspension of Plasmopara viticola containing 510,000 conidia per milliliter of water. The inoculated cuttings were placed into a misting chamber. […] Ten to 11 days after the inoculation, the amount of disease control was determined. The percent disease control provided by the test compound was based on the percent disease reduction relative to untreated check cuttings.

[19] = system: Plasmopora viticola; assay: Control of foliar grape downy mildew infection by root absorption (Example 12, Table VII); assay type: in vivo; conditions: 50% wettable powder, 50 ppm
Source text: Three-month-old single-bud Cabernet Sauvignon cuttings (cultivated in gravel), containing 9 to 12 leaves, were used as hosts. […] The cuttings were then replanted in gravel and put into a misting chamber. At four different times after root treatment, the leaf undersides were sprayed with a sporangial suspension of Plasmopora viticola. The inoculated cuttings were placed into the misting chamber to stimulate disease development. Ten to 12 days after inoculation, the amount of disease control was determined. The percent disease control provided by the test compound was based on the percent disease reduction relative to untreated check cuttings.

[20] = system: Bremia lactucae; assay: Control of lettuce downy mildew (Example 13, Table VIII); assay type: in vivo
[21] = system: Phytophthora cryptogea; assay: Snapdragon crown and root rot control, soil drench (Example 16, Table XI); assay type: in vivo; conditions: soil drench, 100 ppm
[22] = 61.5 ppm, treated 3 days after inoculation
[23] = 62.5 ppm, treated 1 day after inoculation
[24] = 62.5 ppm, treated 2 days after inoculation
[25] = inoculated 1 day after root treatment
[26] = inoculated 5 days after root treatment

For `Cc1cccc(C)c1N(C(=O)CCl)C1CCOC1=O` (stereo not drawn) [Compound A, 3-(N-chloroacetyl-N-2,6-dimethylphenylamino)-gamma-butyrolactone], the “% Diseased Seedlings” value ([1]; 20 g a.i./hl) was 1.8%, the “% Control” value ([1]; 20 g a.i./hl) was 98.2% and the “% Diseased Seedlings” value ([1]; 40 g a.i./hl) was 1.0%. The “% Control” value ([1]; 40 g a.i./hl) was 99.0%, the “% Diseased Seedlings” value ([1]; 80 g a.i./hl) was 0.6% and the “% Control” value ([1]; 80 g a.i./hl) was 99.4%. For the same compound, the “% Control” value ([2]; 16 ppm) was 92%, the “% Control” value ([2]; 40 ppm) was 97% and the “% Control” value ([2]; 100 ppm) was 100%. For the same compound, the “% Disease Control” value [3] was 99.8%, the “% Leaf Surface Infected” value [3] was 0.03% and the “% Diseased Seedlings” value ([4]; 20 g a.i./hl) was 1.8%. For the same compound, the “% Control” value ([4]; 20 g a.i./hl) was 98.2%, the “% Diseased Seedlings” value ([4]; 40 g a.i./hl) was 2.2% and the “% Control” value ([4]; 40 g a.i./hl) was 97.7%. For the same compound, the “% Diseased Seedlings” value ([4]; 80 g a.i./hl) was 1.5%, the “% Control” value ([4]; 80 g a.i./hl) was 98.5% and the pest or weed control at 6.4 ppm ([5]; 6.4 ppm) was 99%. The pest or weed control at 100 ppm ([5]; 100 ppm) was 99%, the LD50 [6] was > 2000 mg/kg and the LD50 [7] was > 1000 mg/kg. For the same compound, the “% Control” value ([8]; 100 g/hl) was 25%, the “% Leaf Surface Damaged” value ([8]; 100 g/hl) was 0% and the “% of Alive Seedlings” value ([8]; 100 g/hl) was 50%. For the same compound, the “% Control” value ([8]; 200 g/hl) was 100%, the “% Leaf Surface Damaged” value ([8]; 200 g/hl) was 1.3% and the “% of Alive Seedlings” value ([8]; 200 g/hl) was 100%. The “% Control” value ([8]; 400 g/hl) was 100%, the “% Leaf Surface Damaged” value ([8]; 400 g/hl) was 1.63% and the “% of Alive Seedlings” value ([8]; 400 g/hl) was 100%. The “% Control” value [9] was 97%, the “% Control, P. Cryptogea” value ([10]; 16 ppm) was 96% and the “% Control, P. Cryptogea” value ([10]; 40 ppm) was 99.8%. For the same compound, the “% Control, P. Cryptogea” value ([10]; 100 ppm) was 100%, the “Percent Control” value ([11]; 6.4 ppm) was 100% and the “Percent Control” value ([11]; 16 ppm) was 100%. For the same compound, the “Percent Control” value ([11]; 40 ppm) was 100%, the “Cumulative loss of weight due to CO2 escape” value (shortened to “Cumulative loss of weight due”) ([12]; 1 ppm, after 1 day) was 0.9 grams and the “Cumulative loss of weight due” value ([12]; 1 ppm, after 2 days) was 5.0 grams. For the same compound, the “Cumulative loss of weight due” value ([12]; 1 ppm, after 3 days) was 10.5 grams, the “Cumulative loss of weight due” value ([12]; 1 ppm, after 4 days) was 11.3 grams and the “Cumulative loss of weight due” value ([12]; 1 ppm, after 7 days) was 14.2 grams. For the same compound, the “Cumulative loss of weight due” value ([12]; 1 ppm, after 8 days) was 14.5 grams, the “Cumulative loss of weight due” value ([12]; 2 ppm, after 1 day) was 0.8 grams and the “Cumulative loss of weight due” value ([12]; 2 ppm, after 2 days) was 5.2 grams. For the same compound, the “Cumulative loss of weight due” value ([12]; 2 ppm, after 3 days) was 10.4 grams, the “Cumulative loss of weight due” value ([12]; 2 ppm, after 4 days) was 11.1 grams and the “Cumulative loss of weight due” value ([12]; 2 ppm, after 7 days) was 13.4 grams. The “Cumulative loss of weight due” value ([12]; 2 ppm, after 8 days) was 13.7 grams, the “Cumulative loss of weight due” value ([12]; 4 ppm, after 1 day) was 1.0 grams and the “Cumulative loss of weight due” value ([12]; 4 ppm, after 2 days) was 5.2 grams. The “Cumulative loss of weight due” value ([12]; 4 ppm, after 3 days) was 10.4 grams, the “Cumulative loss of weight due” value ([12]; 4 ppm, after 4 days) was 11.1 grams and the “Cumulative loss of weight due” value ([12]; 4 ppm, after 7 days) was 13.1 grams. For the same compound, the “Cumulative loss of weight due” value ([12]; 4 ppm, after 8 days) was 13.3 grams, the “Cumulative loss of weight due” value ([12]; 8 ppm, after 1 day) was 1.0 grams and the “Cumulative loss of weight due” value ([12]; 8 ppm, after 2 days) was 5.4 grams. The “Cumulative loss of weight due” value ([12]; 8 ppm, after 3 days) was 11.0 grams, the “Cumulative loss of weight due” value ([12]; 8 ppm, after 4 days) was 11.8 grams and the “Cumulative loss of weight due” value ([12]; 8 ppm, after 7 days) was 14.5 grams. For the same compound, the “Cumulative loss of weight due” value ([12]; 8 ppm, after 8 days) was 15.2 grams, the “% Control” value ([13]; 16 ppm) was 63% and the “% Control” value ([13]; 40 ppm) was 88%. The “% Control” value ([13]; 100 ppm) was 100%, the “% Control, P. Parasitica” value ([14]; 16 ppm) was 94% and the “% Control, P. Parasitica” value ([14]; 40 ppm) was 99%. For the same compound, the “% Control, P. Parasitica” value ([14]; 100 ppm) was 100%, the “% Control, P. Cryptogea” value ([15]; 16 ppm) was 92% and the “% Control, P. Cryptogea” value ([15]; 40 ppm) was 97%. For the same compound, the “% Control, P. Cryptogea” value ([15]; 100 ppm) was 100%, the pest or weed control at 6.4 ppm [16] was 97% and the “% Control, P. Parasitica” value ([17]; 16 ppm) was 96%. For the same compound, the “% Control, P. Parasitica” value ([17]; 40 ppm) was 99.8%, the “% Control, P. Parasitica” value ([17]; 100 ppm) was 100% and the “% Disease Control” value [18, 22] was 84.7%. The “% Leaf Surface Infected” value [18, 22] was 4.15%, the “% Disease Control” value ([18]; 62.5 ppm) was 91.6% and the “% Disease Control” value [18, 23] was 97.6%. For the same compound, the “% Leaf Surface Infected” value [18, 23] was 0.51%, the “% Disease Control” value [18, 24] was 96.2% and the “% Leaf Surface Infected” value [18, 24] was 0.55%. The “% Leaf Surface Infected” value ([18]; 62.5 ppm, treated 5 days after inoculation) was 2.5%, the “% Disease Control” value [19, 25] was 33.5% and the “% Leaf Surface Infected” value [19, 25] was 6.26%. For the same compound, the “% Disease Control” value [19, 26] was 98%, the “% Leaf Surface Infected” value [19, 26] was 0.32% and the “% Control” value ([20]; 25 g active/hl) was 75.8%. For the same compound, the “% Dead Seedlings” value ([20]; 25 g active/hl) was 5.9%, the “% Control” value ([20]; 50 g active/hl) was 90.6% and the “% Dead Seedlings” value ([20]; 50 g active/hl) was 1.1%. The “% Control” value ([20]; 100 g active/hl) was 95.5%, the “% Dead Seedlings” value ([20]; 100 g active/hl) was 2.3% and the “% Control” value [21] was 100%.
